Source: US9708314B2, “Heterocyclic amide compound” (NISSAN CHEMICAL INDUSTRIES, LTD., priority 2013, dated 2017)

Tests used:
Assay type in all cases: in vivo
[1] = tested on: Beta vulgaris ssp. vulgaris; experiment: Test Example 4: effect on crop by application to foliage (diluvial soil, plastic box); conditions: application to foliage; for effect on crop, f (Beta vulgaris ssp. vulgaris): 320 g/ha
Summary of the method: (§1)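 Seeds sown in sterilized diluvial soil, covered ~1.5 cm, grown 14 days in greenhouse at 25° C. to 30° C. Emulsion formulation diluted in water to set rate (g/ha) and sprayed onto stems and leaves. Effect scored visually 3 weeks later on 0–5 scale (5 = ≥90% herbicidal ratio, 0 = ≤5%).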

[2] = tested on: directly sowed Oryza sativa; experiment: as above; conditions: application to foliage; for effect on crop, d (directly sowed Oryza sativa): 320 g/ha
Summary of the method: as §1

Brassica campestris L. = experiment: as above; conditions: application to foliage; for effect on crop, g (Brassica campestris L.): 320 g/ha
Summary of the method: as §1

Glycine max = experiment: as above; conditions: application to foliage; for effect on crop, c (Glycine max): 320 g/ha
Summary of the method: as §1

Triticum aestivum = experiment: as above; conditions: application to foliage; for effect on crop, e (Triticum aestivum): 320 g/ha
Summary of the method: as §1

Zea mays = experiment: as above; conditions: application to foliage; for effect on crop, b (Zea mays): 320 g/ha
Summary of the method: as §1

Chenopodium album = experiment: Test Example 4: herbicidal effect by application to foliage (diluvial soil, plastic box); conditions: application to foliage; for herbicidal effect, O (Chenopodium album): 320 g/ha
Summary of the method: as §1

Setaria viridis = experiment: as above; conditions: application to foliage; for herbicidal effect, G (Setaria viridis): 320 g/ha
Summary of the method: as §1

Abutilon theophrasti = experiment: as above; conditions: application to foliage; for herbicidal effect, M (Abutilon theophrasti): 320 g/ha
Summary of the method: as §1

Galium spurium = experiment: as above; conditions: application to foliage; for herbicidal effect, Q (Galium spurium): 320 g/ha
Summary of the method: as §1

Alopecurus myosuroides = experiment: as above; conditions: application to foliage; for herbicidal effect, J (Alopecurus myosuroides): 320 g/ha
Summary of the method: as §1

Digitaria ciliaris = experiment: as above; conditions: application to foliage; for herbicidal effect, F (Digitaria ciliaris): 320 g/ha
Summary of the method: as §1

Avena fatua = experiment: as above; conditions: application to foliage; for herbicidal effect, I (Avena fatua): 320 g/ha
Summary of the method: as §1

Lolium multiflorum Lam. = experiment: as above; conditions: application to foliage; for herbicidal effect, K (Lolium multiflorum Lam.): 320 g/ha
Summary of the method: as §1

[3] = tested on: Echinochloa crus-galli var. crus-galli; experiment: as above; conditions: application to foliage; for herbicidal effect, H (Echinochloa crus-galli var. crus-galli): 320 g/ha
Summary of the method: as §1

Apera spica-venti. = experiment: as above; conditions: application to foliage; for herbicidal effect, L (Apera spica-venti.): 320 g/ha
Summary of the method: as §1

Leptochloa chinensis = experiment: Test Example 3: herbicidal effect by application to foliage (Wagner pot, water depth 0.1-0.5 cm); conditions: Nineteenth Table; application to foliage; application herbicide amount 320 g/ha
Summary of the method: (§2)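 Seeds were sown in alluvial soil in Wagner pots, grown for 14 days at 25–30 °C, then sprayed uniformly on foliage with the emulsified compound diluted to a given rate per hectare. Injury was graded three weeks after treatment from 0 (≤5%) to 5 (≥90%).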

[4] = tested on: Echinochloa crus-galli var. crus-galli; experiment: as above; conditions: Nineteenth Table; application to foliage; application herbicide amount 320 g/ha
Summary of the method: as §2

[5] = application herbicide amount 320 g/ha

Compound	D (herbicidal effect grade) (Leptochloa chinensis)	H (herbicidal effect grade) [4]	effect on crop, f (Beta vulgaris ssp. vulgaris) [1]	effect on crop, d (directly sowed Oryza sativa) [2]	effect on crop, g (Brassica campestris L.) (Brassica campestris L.)	effect on crop, c (Glycine max) (Glycine max)	effect on crop, e (Triticum aestivum) (Triticum aestivum)	effect on crop, b (Zea mays) (Zea mays)	herbicidal effect, O (Chenopodium album) (Chenopodium album)	herbicidal effect, G (Setaria viridis) (Setaria viridis)	herbicidal effect, M (Abutilon theophrasti) (Abutilon theophrasti)	herbicidal effect, Q (Galium spurium) (Galium spurium)	herbicidal effect, J (Alopecurus myosuroides) (Alopecurus myosuroides)	herbicidal effect, F (Digitaria ciliaris) (Digitaria ciliaris)	herbicidal effect, I (Avena fatua) (Avena fatua)	herbicidal effect, K (Lolium multiflorum Lam.) (Lolium multiflorum Lam.)	herbicidal effect, H (Echinochloa crus-galli var. crus-galli) [3]	herbicidal effect, L (Apera spica-venti.) (Apera spica-venti.)	other results
COCCc1nnc2c(C(=O)Nc3nnc(C)o3)ccc(C(F)(F)F)n12 [1-173]	4 (Herbicidal ratio of 70% or more and less than 90%)	5 (Herbicidal ratio of 90% or more (almost completely withered))																	f: effect on crop, Beta vulgaris ssp. vulgaris [1, 5]: 5 (Herbicidal ratio of 90% or more (almost completely withered)); b: effect on crop, directly sowed Oryza sativa [2, 5]: 3 (Herbicidal ratio of 40% or more and less than 70%); g: effect on crop, Brassica campestris L. (Brassica campestris L.; [5]): 4 (Herbicidal ratio of 70% or more and less than 90%); d: effect on crop, Glycine max (Glycine max; [5]): 4 (Herbicidal ratio of 70% or more and less than 90%); e: effect on crop, Triticum aestivum (Triticum aestivum; [5]): 1 (Herbicidal ratio of 5% or more and less than 20%); c: effect on crop, Zea mays (Zea mays; [5]): 0 (Herbicidal ratio of 5% or less (almost no effect)); O: herbicidal effect on Chenopodium album (Chenopodium album; [5]): 5 (Herbicidal ratio of 90% or more (almost completely withered)); G: herbicidal effect on Setaria viridis (Setaria viridis; [5]): 3 (Herbicidal ratio of 40% or more and less than 70%); M: herbicidal effect on Abutilon theophrasti (Abutilon theophrasti; [5]): 5 (Herbicidal ratio of 90% or more (almost completely withered)); Q: herbicidal effect on Galium spurium (Galium spurium; [5]): 4 (Herbicidal ratio of 70% or more and less than 90%); J: herbicidal effect on Alopecurus myosuroides (Alopecurus myosuroides; [5]): 1 (Herbicidal ratio of 5% or more and less than 20%); F: herbicidal effect on Digitaria ciliaris (Digitaria ciliaris; [5]): 4 (Herbicidal ratio of 70% or more and less than 90%); I: herbicidal effect on Avena fatua (Avena fatua; [5]): 2 (Herbicidal ratio of 20% or more and less than 40%); K: herbicidal effect on Lolium multiflorum Lam. (Lolium multiflorum Lam.; [5]): 1 (Herbicidal ratio of 5% or more and less than 20%); H: herbicidal effect on Echinochloa crus-galli var. crus-galli [3, 5]: 5 (Herbicidal ratio of 90% or more (almost completely withered)); L: herbicidal effect on Apera spica-venti. (Apera spica-venti.; [5]): 1 (Herbicidal ratio of 5% or more and less than 20%)
Cn1nnnc1NC(=O)c1ccc(C(F)(F)F)n2c(SC3CCCC3)nnc12 [2-096]	0 (Herbicidal ratio of 5% or less (almost no effect))	0 (Herbicidal ratio of 5% or less (almost no effect))	5 (Herbicidal ratio of 90% or more (almost completely withered))	3 (Herbicidal ratio of 40% or more and less than 70%)	0 (Herbicidal ratio of 5% or less (almost no effect))	0 (Herbicidal ratio of 5% or less (almost no effect))	0 (Herbicidal ratio of 5% or less (almost no effect))	0 (Herbicidal ratio of 5% or less (almost no effect))	5 (Herbicidal ratio of 90% or more (almost completely withered))	4 (Herbicidal ratio of 70% or more and less than 90%)	5 (Herbicidal ratio of 90% or more (almost completely withered))	3 (Herbicidal ratio of 40% or more and less than 70%)	0 (Herbicidal ratio of 5% or less (almost no effect))	5 (Herbicidal ratio of 90% or more (almost completely withered))	1 (Herbicidal ratio of 5% or more and less than 20%)	0 (Herbicidal ratio of 5% or less (almost no effect))	5 (Herbicidal ratio of 90% or more (almost completely withered))	0 (Herbicidal ratio of 5% or less (almost no effect))	
Cn1nnnc1NC(=O)c1ccc(C(F)(F)F)n2c(SCc3ccc(Cl)nc3)nnc12 [2-097]	3 (Herbicidal ratio of 40% or more and less than 70%)	2 (Herbicidal ratio of 20% or more and less than 40%)	4 (Herbicidal ratio of 70% or more and less than 90%)	3 (Herbicidal ratio of 40% or more and less than 70%)	1 (Herbicidal ratio of 5% or more and less than 20%)	0 (Herbicidal ratio of 5% or less (almost no effect))	0 (Herbicidal ratio of 5% or less (almost no effect))	0 (Herbicidal ratio of 5% or less (almost no effect))	5 (Herbicidal ratio of 90% or more (almost completely withered))	3 (Herbicidal ratio of 40% or more and less than 70%)	3 (Herbicidal ratio of 40% or more and less than 70%)	3 (Herbicidal ratio of 40% or more and less than 70%)	1 (Herbicidal ratio of 5% or more and less than 20%)	4 (Herbicidal ratio of 70% or more and less than 90%)	2 (Herbicidal ratio of 20% or more and less than 40%)	1 (Herbicidal ratio of 5% or more and less than 20%)	5 (Herbicidal ratio of 90% or more (almost completely withered))	2 (Herbicidal ratio of 20% or more and less than 40%)	
